Key:
[1] = target: T1, human soluble guanylate cyclase alpha 1 and beta 1 subunits (sGC) (Homo sapiens, UniProt Q02108+Q02153); assay: sGC cellular activator assay (cGMP, HTRF); format: cell-based; conditions: CHO cells stably expressing human sGC alpha 1/beta 1, preincubated with 40 microM ODQ; cGMP readout; assay run with and without 50% human serum, Table 2 does not say which
T1 construct: expressed in transfected cells; host or cells: Chinese hamster ovary (CHO) cells, stably transfected
T1 sequence (Q02108 1-690): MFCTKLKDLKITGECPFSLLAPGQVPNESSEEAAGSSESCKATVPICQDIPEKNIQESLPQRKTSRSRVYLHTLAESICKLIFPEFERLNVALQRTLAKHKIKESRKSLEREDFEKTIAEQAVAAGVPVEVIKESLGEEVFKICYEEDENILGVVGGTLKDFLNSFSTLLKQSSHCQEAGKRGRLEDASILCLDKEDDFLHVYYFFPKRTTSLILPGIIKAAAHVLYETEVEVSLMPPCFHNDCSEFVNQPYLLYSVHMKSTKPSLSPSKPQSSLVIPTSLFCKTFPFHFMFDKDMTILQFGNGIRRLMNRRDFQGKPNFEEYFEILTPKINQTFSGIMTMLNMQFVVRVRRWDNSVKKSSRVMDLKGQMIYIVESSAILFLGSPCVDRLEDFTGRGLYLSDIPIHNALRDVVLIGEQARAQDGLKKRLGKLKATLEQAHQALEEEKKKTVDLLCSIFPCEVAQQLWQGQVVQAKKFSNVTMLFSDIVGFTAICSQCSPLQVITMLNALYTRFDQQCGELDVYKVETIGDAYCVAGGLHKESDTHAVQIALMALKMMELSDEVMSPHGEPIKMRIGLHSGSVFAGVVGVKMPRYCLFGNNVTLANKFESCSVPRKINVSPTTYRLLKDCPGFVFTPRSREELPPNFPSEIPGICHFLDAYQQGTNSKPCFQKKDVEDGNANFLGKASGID
T1 sequence (Q02153 1-619): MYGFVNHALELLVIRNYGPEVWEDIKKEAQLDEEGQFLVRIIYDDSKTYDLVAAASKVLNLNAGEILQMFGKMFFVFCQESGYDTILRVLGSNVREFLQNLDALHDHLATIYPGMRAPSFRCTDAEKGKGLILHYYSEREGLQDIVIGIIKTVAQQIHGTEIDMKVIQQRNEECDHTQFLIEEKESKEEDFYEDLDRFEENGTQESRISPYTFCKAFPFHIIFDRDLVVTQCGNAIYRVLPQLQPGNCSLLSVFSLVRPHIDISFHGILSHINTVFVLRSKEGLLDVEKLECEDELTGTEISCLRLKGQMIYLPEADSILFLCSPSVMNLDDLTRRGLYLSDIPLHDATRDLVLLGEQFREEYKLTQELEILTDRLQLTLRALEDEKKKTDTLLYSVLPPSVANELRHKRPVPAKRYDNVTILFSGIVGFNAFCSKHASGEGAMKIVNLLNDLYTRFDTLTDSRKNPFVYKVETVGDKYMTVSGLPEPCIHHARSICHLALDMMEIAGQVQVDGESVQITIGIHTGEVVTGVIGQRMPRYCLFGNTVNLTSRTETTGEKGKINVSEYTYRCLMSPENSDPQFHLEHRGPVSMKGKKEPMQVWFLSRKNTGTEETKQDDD
In short: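 First, CHO-sGC (human α1β1) cells get 1 h ODQ at 40 microM with IBMX and 0.1% BSA. Finally, cGMP is quantified by HTRF and EC50 computed.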

[2] = human liver microsome (HLM) metabolic stability assay; format: in vitro ADME; conditions: human liver microsomes; % hepatic blood flow calculated from t1/2
In short: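 Compounds at 1 uM incubated with human liver microsomes plus NADPH at 37° C., sampled at 0, 5, 15, 30 and 60 min into cold acetonitrile and quantified by LC/MS/MS. t½ from the slope of ln % remaining vs time; CLint, CLh and % Qh derived from it (n=1).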

Structure (SMILES)	EC50 [1] [µM]	HLM (% Qh) [2] [% Qh]
COCC(C)N1CCc2cc(COc3c(C)cccc3-c3cccc(-n4ncc(C(=O)O)c4OC(C)C)n3)ccc2C1 (stereo not shown) [Compound 38]	0.066	<24
COc1c(C(=O)O)cnn1-c1cccc(-c2cccc(C)c2OCc2ccc3c(c2)CCN(C2CCOC(C)(C)C2)C3)n1 (stereo not shown) [Compound 61]	0.059	<24
COc1c(C(=O)O)cnn1-c1cccc(-c2cccc(C)c2OCc2ccc3c(c2)CCN([C@H]2CC[C@@H](OC)CC2)C3)n1 [Compound 91]	0.075	<24
CCOc1c(C(=O)O)cnn1-c1cccc(-c2cccc(C)c2OCc2ccc3c(c2)CCN(CC2(C)COC2)C3)n1 [Compound 34]	0.065	<24
CCOc1c(C(=O)O)cnn1-c1cccc(-c2cccc(C)c2OCc2ccc3c(c2)CCN(C2CCOC2C)C3)n1 (stereo not shown) [Compound 71]	0.067	<24
COc1c(C(=O)O)cnn1-c1cccc(-c2cccc(C)c2OCc2ccc3c(c2)CCN(CC(C)(C)O)C3)n1 [Compound 33, 1-(6-{2-[2-(2-hydroxy-2-methyl-propyl)-1,2,3,4-tetrahydro-isoquinolin-6-ylmethoxy]-3-methyl-phenyl}-pyridin-2-yl)-5-methoxy-1H-pyrazole-4-carboxylic acid]	0.097	<24
CCOc1c(C(=O)O)cnn1-c1cccc(-c2cccc(C)c2OCc2ccc3c(c2)CCN(C2COC2)C3)n1 [Compound 6]	0.087	<24
CCOc1c(C(=O)O)cnn1-c1cccc(-c2cccc(C)c2OCc2ccc3c(c2)CCN(C(C)CF)C3)n1 (stereo not shown) [Compound 49, 5-ethoxy-1-(6-{2-[2-(2-fluoro-1-methyl-ethyl)-1,2,3,4-tetrahydro-isoquinolin-6-ylmethoxy]-3-methyl-phenyl}-pyridin-2-yl)-1H-pyrazole-4-carboxylic acid]	0.054	48
COc1c(C(=O)O)cnn1-c1cccc(-c2cccc(F)c2OCc2ccc3c(c2)CCN(C2CCOCC2)C3)n1 [Compound 63]	0.082	<24
CCOc1c(C(=O)O)cnn1-c1cccc(-c2cccc(Cl)c2OCc2ccc3c(c2)CCN(CCOC)C3)n1 [Compound 58]	0.082	<24
COc1c(C(=O)O)cnn1-c1cccc(-c2cccc(C)c2OCc2ccc3c(c2)CCN(CCS(C)(=O)=O)C3)n1 [Compound 74]	0.073	<24
COc1c(C(=O)O)cnn1-c1cccc(-c2cccc(C)c2OCc2ccc3c(c2)CCN(C2CCOCC2OC)C3)n1 (stereo not shown) [Compound 81]	0.41	<24
CCOc1c(C(=O)O)cnn1-c1cccc(-c2cccc(C)c2OCc2ccc3c(c2)CCN(C(C)C)C3)n1 [Compound 32]	0.17	<24
COc1c(C(=O)O)cnn1-c1cccc(-c2cc(F)cc(F)c2OCc2ccc3c(c2)CCN(C2CCOCC2)C3)n1 [Compound 53]	0.11	<24
Cc1cccc(-c2cccc(-n3ncc(C(=O)O)c3OC(C)C)n2)c1OCc1ccc2c(c1C)CCN(C(C)C)C2 [Compound 43]	0.13	26
CCOc1c(C(=O)O)cnn1-c1cccc(-c2cccc(C)c2OCc2ccc3c(c2)CCN(C(C)CS(C)(=O)=O)C3)n1 (stereo not shown) [Compound 70]	0.18	<24

Now those with a lower EC50 [1], led by results:

EC50 [1] [µM]	HLM (% Qh) [2] [% Qh]	Structure (SMILES)
0.041	<24	COc1c(C(=O)O)cnn1-c1cccc(-c2cccc(C)c2OCc2ccc3c(c2)CCN(C2CCOCC2C)C3)n1 (stereo not shown) [Compound 86]
0.037	<24	COc1c(C(=O)O)cnn1-c1cccc(-c2cccc(C(F)(F)F)c2OCc2ccc3c(c2)CN(C2CCOCC2)C3)n1 [Compound 93]
0.033	<24	CCOc1c(C(=O)O)cnn1-c1cccc(-c2cccc(C)c2OCc2ccc3c(c2)CCN(C2CCOC(CC)C2)C3)n1 (stereo not shown) [Compound 79]
0.029	<24	CCOc1c(C(=O)O)cnn1-c1cccc(-c2cccc(C)c2OCc2ccc3c(c2)CCN(C2CCOC2)C3)n1 (stereo not shown) [Compound 35]
0.028	<24	COc1c(C(=O)O)cnn1-c1cccc(-c2cccc(C(F)(F)F)c2OCc2ccc3c(c2C)CCN(C2COC2)C3)n1 [Compound 88]
0.024	30	CCOc1c(C(=O)O)cnn1-c1cccc(-c2cccc(C)c2OCc2ccc3c(c2)CCN(CC2CC(F)(F)C2)C3)n1 [Compound 96]
0.024	<24	COc1c(C(=O)O)cnn1-c1cccc(-c2cccc(C)c2OCc2ccc3c(c2)CCN(C2CC(C)OC(C)C2)C3)n1 (stereo not shown) [Compound 62]
0.023	31	COc1c(C(=O)O)cnn1-c1cccc(-c2cccc(C)c2OCc2ccc3c(c2)CCN(C2C4CCOC4C2(C)C)C3)n1 (stereo not shown) [Compound 75]
0.022	<24	COc1c(C(=O)O)cnn1-c1cccc(-c2cccc(C)c2OCc2ccc3c(c2)CN(C2COC2)C3)n1 [Compound 85]
0.019	<24	COc1c(C(=O)O)cnn1-c1cccc(-c2cccc(C)c2OCc2ccc3c(c2C)CCN(C2CCOC2)C3)n1 (stereo not shown) [Compound 31]
0.017	<24	Cc1cccc(-c2cccc(-n3ncc(C(=O)O)c3OC(C)C)n2)c1OCc1ccc2c(c1)CCN(C1COC1)C2 [Compound 39]
0.017	47	COc1c(C(=O)O)cnn1-c1cccc(-c2cccc(C)c2OCc2ccc3c(c2)CCN(CC2CC2(F)F)C3)n1 (stereo not shown) [Compound 72, 1-(6-{2-[2-(2,2-difluoro-cyclopropylmethyl)-1,2,3,4-tetrahydro-isoquinolin-6-ylmethoxy]-3-methyl-phenyl}-pyridin-2-yl)-5-methoxy-1H-pyrazole-4-carboxylic acid]
0.009	<24	COc1c(C(=O)O)cnn1-c1cccc(-c2cccc(C)c2OCc2ccc3c(c2)CCN(C2CCC(F)(F)CC2)C3)n1 [Compound 5]
